Active and inactive are the calls of the source.
How the values were obtained:
[1] = biological target: Glyceraldehyde-3-phosphate dehydrogenase (Homo sapiens, UniProt P04406)
[2] = biological target: Heat shock cognate 71 kDa protein (Homo sapiens, UniProt P11142); assay: In Vitro Hsc70 Dose Response Fluorescence Polarization Assay. [Related pubchem assays: 1072 ]
[3] = biological target: Heat shock 70 kDa protein 1A (Homo sapiens, UniProt P0DMV8); assay: Hsp70 inhibitors, SAR follow-up, biochemical, fluorescence polarization (AID 1072)
Sequence of Heat shock 70 kDa protein 1A (P0DMV8 whole entry): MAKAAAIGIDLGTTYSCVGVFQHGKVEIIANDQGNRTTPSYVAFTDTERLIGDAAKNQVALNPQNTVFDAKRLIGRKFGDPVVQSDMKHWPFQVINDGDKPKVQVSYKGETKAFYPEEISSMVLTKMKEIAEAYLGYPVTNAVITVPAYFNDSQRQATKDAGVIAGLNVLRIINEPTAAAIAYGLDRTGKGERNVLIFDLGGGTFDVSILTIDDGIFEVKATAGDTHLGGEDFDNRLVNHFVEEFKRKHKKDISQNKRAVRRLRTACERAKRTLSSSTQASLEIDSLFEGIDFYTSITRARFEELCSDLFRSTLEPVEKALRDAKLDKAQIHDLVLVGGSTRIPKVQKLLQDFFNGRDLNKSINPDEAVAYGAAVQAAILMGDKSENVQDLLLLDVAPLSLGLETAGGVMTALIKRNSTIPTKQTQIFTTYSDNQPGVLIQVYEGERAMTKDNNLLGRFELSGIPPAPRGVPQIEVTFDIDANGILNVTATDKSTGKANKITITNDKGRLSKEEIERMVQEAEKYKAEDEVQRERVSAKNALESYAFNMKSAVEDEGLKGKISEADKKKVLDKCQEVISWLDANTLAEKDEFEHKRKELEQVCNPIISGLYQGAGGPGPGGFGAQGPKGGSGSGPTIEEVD

[4] = biological target: Serine/threonine-protein phosphatase PP1-alpha catalytic subunit (Homo sapiens, UniProt P62136); assay: PP1 phosphatase inhibitors, dose response, biochemical, fluorescence (AID 2403);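 further: phosphatase turnover of OMFP into fluorescent 3-O-methylfluorescein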
Sequence of Serine/threonine-protein phosphatase PP1-alpha catalytic subunit (P62136 whole entry): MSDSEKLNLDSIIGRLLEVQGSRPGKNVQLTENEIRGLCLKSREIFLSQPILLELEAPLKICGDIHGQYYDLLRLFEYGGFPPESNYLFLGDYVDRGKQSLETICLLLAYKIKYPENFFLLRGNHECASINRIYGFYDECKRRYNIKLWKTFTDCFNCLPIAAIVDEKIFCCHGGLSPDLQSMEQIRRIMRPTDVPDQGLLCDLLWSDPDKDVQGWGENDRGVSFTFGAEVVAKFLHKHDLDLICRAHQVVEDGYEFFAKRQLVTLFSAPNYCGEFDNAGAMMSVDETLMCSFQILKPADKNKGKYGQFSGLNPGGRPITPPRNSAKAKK

[5] = biological target: Serine/threonine-protein phosphatase (Homo sapiens, UniProt Q9BPW0); assay: Counterscreen for inhibitors of PP1: fluorescence-based biochemical high throughput dose response assay to identify inhibitors of Protein Phosphatase 5 (PP5). [Related pubchem assays: 2034 (Summary (PP5 inhibitors)), 1987 (PP5 inhibitors in singlate), 2235 (PP1 inhibitors in singlate)]
Sequence of Serine/threonine-protein phosphatase (Q9BPW0 whole entry): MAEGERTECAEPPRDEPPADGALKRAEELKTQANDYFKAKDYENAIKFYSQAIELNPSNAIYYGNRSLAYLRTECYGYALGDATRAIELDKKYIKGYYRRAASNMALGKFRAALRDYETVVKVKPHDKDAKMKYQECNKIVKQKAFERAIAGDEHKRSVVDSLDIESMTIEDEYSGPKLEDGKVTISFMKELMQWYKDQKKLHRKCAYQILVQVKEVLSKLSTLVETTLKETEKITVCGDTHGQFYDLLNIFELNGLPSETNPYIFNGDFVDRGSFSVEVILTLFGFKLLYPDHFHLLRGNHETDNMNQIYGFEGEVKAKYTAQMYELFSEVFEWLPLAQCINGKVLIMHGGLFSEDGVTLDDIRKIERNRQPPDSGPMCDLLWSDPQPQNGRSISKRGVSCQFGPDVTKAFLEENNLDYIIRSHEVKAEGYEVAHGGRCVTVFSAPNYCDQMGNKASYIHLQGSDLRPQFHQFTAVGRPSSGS

[6] = biological target: Transitional endoplasmic reticulum ATPase (Homo sapiens, UniProt P55072); assay: p97 ATPase inhibitors, dose response, biochemical (AID 1534)
Sequence of Transitional endoplasmic reticulum ATPase (Homo sapiens, UniProt P55072) (P55072 whole entry): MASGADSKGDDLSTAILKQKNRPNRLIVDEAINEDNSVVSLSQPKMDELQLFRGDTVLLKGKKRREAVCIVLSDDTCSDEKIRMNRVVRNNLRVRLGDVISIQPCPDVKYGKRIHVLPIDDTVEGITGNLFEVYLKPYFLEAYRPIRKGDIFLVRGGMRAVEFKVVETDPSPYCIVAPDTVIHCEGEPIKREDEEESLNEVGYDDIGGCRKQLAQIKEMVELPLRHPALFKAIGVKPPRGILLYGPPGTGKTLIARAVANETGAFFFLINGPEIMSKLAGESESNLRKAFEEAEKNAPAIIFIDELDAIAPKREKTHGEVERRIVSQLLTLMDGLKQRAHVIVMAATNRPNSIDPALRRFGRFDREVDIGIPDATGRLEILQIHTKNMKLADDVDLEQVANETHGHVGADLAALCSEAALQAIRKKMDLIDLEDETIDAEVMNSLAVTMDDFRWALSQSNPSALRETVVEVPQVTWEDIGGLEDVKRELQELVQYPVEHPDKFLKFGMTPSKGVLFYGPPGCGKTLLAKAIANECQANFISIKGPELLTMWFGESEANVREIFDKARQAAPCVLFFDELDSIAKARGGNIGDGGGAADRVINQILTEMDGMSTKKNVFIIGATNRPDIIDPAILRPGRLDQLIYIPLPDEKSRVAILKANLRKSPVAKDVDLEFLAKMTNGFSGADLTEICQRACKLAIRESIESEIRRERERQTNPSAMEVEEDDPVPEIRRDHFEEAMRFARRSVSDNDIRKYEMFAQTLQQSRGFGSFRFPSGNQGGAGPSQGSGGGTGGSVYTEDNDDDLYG

[7] = biological target: Induced myeloid leukemia cell differentiation protein Mcl-1 (Homo sapiens, UniProt Q07820); format: functional
Sequence of Induced myeloid leukemia cell differentiation protein Mcl-1 (Q07820 whole entry): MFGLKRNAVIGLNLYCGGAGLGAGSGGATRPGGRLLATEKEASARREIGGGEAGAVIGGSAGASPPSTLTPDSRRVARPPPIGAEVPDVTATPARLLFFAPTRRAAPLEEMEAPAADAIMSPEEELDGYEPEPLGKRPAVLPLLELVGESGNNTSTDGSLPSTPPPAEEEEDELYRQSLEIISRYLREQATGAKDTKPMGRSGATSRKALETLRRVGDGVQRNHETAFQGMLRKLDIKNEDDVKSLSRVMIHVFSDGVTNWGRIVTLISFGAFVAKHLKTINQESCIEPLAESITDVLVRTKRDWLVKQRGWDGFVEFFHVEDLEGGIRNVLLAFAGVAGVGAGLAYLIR

[8] = biological target: Transitional endoplasmic reticulum ATPase (Homo sapiens, UniProt P55072, C522A); assay: C522A mutant p97 ATPase inhibitors, dose response, counter-screen for p97 inhibitor project, biochemical, luminescence (AID 1544)
Sequence of Transitional endoplasmic reticulum ATPase (Homo sapiens, UniProt P55072, C522A) (P55072 2-806 C522A limits assumed): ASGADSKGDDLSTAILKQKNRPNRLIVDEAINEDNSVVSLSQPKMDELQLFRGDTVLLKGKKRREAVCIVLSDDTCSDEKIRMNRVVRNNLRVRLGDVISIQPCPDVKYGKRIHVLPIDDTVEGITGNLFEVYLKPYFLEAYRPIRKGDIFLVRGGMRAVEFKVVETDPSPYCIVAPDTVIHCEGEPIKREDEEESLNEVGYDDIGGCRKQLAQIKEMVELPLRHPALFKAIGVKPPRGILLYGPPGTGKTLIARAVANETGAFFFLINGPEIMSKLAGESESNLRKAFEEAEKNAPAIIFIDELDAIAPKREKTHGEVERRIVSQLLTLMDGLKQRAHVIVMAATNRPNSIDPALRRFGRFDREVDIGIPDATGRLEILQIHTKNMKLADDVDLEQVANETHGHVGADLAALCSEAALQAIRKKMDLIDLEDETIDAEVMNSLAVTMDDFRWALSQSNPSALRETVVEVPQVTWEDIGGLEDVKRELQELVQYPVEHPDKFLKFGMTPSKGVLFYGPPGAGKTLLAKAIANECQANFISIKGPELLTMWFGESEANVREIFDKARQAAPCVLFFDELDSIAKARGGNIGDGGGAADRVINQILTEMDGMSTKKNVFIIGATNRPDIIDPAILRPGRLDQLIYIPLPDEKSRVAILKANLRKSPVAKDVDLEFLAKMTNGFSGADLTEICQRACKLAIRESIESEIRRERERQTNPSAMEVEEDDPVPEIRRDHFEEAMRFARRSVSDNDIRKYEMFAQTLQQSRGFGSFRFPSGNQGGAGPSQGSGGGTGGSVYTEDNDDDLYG

[9] = cytotoxicity in HEK-293T cells, dose response, cytotoxicity control for TCR NF-kB inhibitor project, luminescence, T-cell screen hits (AID 489026); format: functional, cell-based;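 further: cells exposed to compound about 14 hours before the viability readout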
[10] = luciferase reporter signal reduction – luminescence, H4-C neuroglioblastoma cells, dose response (AID 2458); format: functional, cell-based;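 further: H4 neuroglioblastoma cells stably carrying a luciferase reporter gene fusion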
[11] = Luminescence Cell-Based Dose Response HTS to Identify Inhibitors of 5'UTR Stem-Loop Driven Prion Protein mRNA Translation in H4 Neuroglioblastoma Cells. [Related pubchem assays: 1827 (Project Summary), 1813 (Primary HTS)]; format: functional
[12] = inhibitors of SNCA 5'UTR-driven translation, confirmation, luminescence, H4 neuroglioblastoma cells, dose confirmation (AID 2454); format: functional, cell-based;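 further: H4 neuroglioblastoma cells carrying an alpha-synuclein 5'UTR luciferase reporter; potency for inhibition of the luciferase signal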
cells = format: functional, cell-based
[13] = inhibitors of SNCA 5'UTR-driven reporter translation, confirmation, H4 neuroglioma cells, luminescence (AID 1988); format: functional, cell-based
[14] = inhibitors of firefly luciferase expression or activity, dose response, H4 neuroglioma cells, luminescence (AID 1990); format: functional, cell-based
[15] = biological target: T1, Sentrin-specific protease 8 (Homo sapiens, UniProt Q96LD8); assay: SENP8 protease inhibitors, SAR follow-up, biochemical, luminescence (AID 504501); format: functional
T1 sequence (Q96LD8 whole entry): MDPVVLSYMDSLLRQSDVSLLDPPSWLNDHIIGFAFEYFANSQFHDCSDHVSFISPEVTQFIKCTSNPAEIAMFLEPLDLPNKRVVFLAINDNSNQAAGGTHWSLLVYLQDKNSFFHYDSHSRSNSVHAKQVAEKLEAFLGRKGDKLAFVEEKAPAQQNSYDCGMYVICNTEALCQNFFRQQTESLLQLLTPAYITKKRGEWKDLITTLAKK

[16] = HepG2 cell cytotoxicity, dose response, cytotoxicity control, plate reader, cherry-pick, antagonist series (AID 743416); format: functional, cell-based
[17] = LGR2 antagonists, dose response, cell-based, HEK293, CRE-luciferase reporter, cherry pick, set 2 (AID 743343); format: functional;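 further: transfected cells were stimulated with diluted bursicon conditioned medium after compound addition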
[18] = biological target: T2, Sentrin-specific protease 7 (Homo sapiens, UniProt Q9BQF6); assay: SENP7 protease inhibitors, SAR follow-up, biochemical, luminescence (AID 504497); format: functional
T2 sequence (Q9BQF6 whole entry): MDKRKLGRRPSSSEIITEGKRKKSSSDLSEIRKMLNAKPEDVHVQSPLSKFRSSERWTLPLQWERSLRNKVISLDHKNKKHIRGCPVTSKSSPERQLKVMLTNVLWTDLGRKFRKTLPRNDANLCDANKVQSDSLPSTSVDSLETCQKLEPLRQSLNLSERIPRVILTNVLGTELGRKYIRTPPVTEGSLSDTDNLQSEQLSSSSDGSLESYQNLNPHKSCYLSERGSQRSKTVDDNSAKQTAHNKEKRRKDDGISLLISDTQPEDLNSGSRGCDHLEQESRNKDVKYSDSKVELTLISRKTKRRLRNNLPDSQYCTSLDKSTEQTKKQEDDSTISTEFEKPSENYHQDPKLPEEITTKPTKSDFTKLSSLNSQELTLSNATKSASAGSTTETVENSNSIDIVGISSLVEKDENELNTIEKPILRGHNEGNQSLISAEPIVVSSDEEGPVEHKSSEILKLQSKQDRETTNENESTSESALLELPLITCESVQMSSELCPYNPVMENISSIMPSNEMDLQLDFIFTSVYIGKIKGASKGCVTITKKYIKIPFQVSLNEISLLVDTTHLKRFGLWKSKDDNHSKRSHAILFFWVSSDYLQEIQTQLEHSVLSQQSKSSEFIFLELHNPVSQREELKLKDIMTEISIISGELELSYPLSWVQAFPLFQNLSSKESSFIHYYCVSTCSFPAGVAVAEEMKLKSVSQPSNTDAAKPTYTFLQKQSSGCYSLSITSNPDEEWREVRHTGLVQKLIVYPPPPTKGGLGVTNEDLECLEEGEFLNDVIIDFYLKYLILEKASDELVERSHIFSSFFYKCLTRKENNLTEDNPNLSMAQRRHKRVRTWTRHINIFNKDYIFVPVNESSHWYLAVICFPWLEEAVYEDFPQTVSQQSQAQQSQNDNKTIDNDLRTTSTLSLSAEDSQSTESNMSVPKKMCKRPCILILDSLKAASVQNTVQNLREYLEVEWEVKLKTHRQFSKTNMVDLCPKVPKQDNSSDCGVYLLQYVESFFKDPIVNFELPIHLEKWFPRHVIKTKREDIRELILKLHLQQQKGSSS

[19] = Luminescence-based counterscreen assay for KLF5 inhibitors: dose response cell-based high throughput screening assay to identify cytotoxic compounds using the IEC-6 intestinal epithelial cell line. [Related pubchem assays: 1700 (Primary screen.), 1834 (Confirmation screen.), 1858 (Summary AID.), 1905 (Counterscreen.)]; format: functional
Caspase-3 = biological target: T3, Caspase-3 (Homo sapiens, UniProt P42574); assay: SAR Analysis of small molecule inhibitors of Sentrin-specific proteases (SENPs) using a Caspase-3 Selectivity assay. [Related pubchem assays (depositor defined):AID2540, AID2599, AID434973, AID489001]; format: functional
T3 sequence (P42574 whole entry): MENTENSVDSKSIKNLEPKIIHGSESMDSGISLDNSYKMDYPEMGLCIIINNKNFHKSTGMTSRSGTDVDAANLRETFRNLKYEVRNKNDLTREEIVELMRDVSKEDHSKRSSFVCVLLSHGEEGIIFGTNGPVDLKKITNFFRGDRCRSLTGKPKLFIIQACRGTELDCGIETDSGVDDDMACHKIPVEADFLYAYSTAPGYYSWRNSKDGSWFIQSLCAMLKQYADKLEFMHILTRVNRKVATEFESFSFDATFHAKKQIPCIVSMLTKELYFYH

[20] = biological target: T4, Sentrin-specific protease 6 (Homo sapiens, UniProt Q9GZR1); assay: SAR Analysis of small molecule inhibitors of Sentrin-specific protease 6 (SENP6) using a Luminescent assay. [Related pubchem assays (depositor defined):AID2582, AID2599]; format: functional
T4 sequence (Q9GZR1 whole entry): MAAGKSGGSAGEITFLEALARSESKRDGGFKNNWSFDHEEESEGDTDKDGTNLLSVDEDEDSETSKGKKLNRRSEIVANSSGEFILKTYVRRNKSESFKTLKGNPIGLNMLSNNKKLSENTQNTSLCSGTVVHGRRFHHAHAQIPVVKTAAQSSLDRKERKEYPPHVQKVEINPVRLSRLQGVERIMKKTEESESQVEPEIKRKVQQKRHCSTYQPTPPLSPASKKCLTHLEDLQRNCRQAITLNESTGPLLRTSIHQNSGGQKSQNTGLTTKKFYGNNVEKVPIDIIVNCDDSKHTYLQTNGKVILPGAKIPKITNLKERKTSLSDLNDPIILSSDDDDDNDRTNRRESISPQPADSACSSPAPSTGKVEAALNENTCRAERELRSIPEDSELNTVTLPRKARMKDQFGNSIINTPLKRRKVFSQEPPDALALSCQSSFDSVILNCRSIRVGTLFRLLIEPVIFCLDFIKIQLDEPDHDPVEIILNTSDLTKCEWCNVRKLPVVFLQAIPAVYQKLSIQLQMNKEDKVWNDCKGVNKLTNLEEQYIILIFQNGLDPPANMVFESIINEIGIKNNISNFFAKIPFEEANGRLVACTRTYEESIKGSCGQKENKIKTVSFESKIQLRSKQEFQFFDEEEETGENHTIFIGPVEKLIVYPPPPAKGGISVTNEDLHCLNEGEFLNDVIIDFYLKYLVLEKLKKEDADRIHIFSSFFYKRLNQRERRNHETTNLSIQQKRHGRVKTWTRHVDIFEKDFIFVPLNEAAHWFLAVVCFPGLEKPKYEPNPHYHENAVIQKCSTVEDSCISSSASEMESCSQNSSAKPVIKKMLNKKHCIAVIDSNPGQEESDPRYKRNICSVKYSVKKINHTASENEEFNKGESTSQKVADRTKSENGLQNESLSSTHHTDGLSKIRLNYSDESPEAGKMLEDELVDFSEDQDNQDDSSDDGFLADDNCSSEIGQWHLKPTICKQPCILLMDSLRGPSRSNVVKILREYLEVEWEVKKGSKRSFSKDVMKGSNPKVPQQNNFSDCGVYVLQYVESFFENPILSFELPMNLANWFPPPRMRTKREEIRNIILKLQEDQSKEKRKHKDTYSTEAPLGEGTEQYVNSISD

[21] = MC4R antagonists, dose response, counter-screen for LGR2 antagonist project, cell-based, plate reader, cherry pick (AID 743444); format: functional;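 further: transfected HEK 293 cells stimulated with alpha-MSH peptide; potency of inhibitors of the alpha-MSH evoked signal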
[22] = biological target: T5, Rac GTPase-activating protein 1 (Homo sapiens, UniProt Q9H0H5); assay: MgcRacGAP GTPase-activating activity inhibitors, confirmation, biochemical, ADP Hunter fluorescence, primary and confirmatory (AID 624330); format: functional
T5 sequence (Q9H0H5 whole entry): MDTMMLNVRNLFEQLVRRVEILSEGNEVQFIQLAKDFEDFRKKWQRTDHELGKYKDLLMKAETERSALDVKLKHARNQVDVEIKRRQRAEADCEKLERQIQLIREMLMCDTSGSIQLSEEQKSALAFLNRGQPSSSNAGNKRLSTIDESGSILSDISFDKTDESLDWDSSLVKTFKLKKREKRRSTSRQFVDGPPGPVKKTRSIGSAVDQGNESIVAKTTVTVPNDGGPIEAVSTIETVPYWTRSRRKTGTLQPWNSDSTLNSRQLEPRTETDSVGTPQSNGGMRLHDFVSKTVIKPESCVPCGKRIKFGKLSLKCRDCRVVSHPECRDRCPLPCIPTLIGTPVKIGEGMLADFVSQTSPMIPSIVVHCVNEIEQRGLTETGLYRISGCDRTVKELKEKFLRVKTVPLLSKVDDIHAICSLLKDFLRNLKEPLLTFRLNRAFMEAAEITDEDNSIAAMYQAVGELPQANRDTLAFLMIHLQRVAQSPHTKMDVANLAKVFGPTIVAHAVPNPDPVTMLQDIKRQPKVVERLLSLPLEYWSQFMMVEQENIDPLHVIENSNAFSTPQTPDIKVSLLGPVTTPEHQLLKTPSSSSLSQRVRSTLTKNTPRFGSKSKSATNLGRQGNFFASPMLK

Cytochrome P450 2D6 = Cytochrome P450 2D6 (Homo sapiens, UniProt P10635); assay: qHTS Assay for Inhibitors and Substrates of Cytochrome P450 2D6. [Related pubchem assays: 410 ]; format: ADME; conditions: read-out: Potency
Sequence of Cytochrome P450 2D6 (P10635 whole entry): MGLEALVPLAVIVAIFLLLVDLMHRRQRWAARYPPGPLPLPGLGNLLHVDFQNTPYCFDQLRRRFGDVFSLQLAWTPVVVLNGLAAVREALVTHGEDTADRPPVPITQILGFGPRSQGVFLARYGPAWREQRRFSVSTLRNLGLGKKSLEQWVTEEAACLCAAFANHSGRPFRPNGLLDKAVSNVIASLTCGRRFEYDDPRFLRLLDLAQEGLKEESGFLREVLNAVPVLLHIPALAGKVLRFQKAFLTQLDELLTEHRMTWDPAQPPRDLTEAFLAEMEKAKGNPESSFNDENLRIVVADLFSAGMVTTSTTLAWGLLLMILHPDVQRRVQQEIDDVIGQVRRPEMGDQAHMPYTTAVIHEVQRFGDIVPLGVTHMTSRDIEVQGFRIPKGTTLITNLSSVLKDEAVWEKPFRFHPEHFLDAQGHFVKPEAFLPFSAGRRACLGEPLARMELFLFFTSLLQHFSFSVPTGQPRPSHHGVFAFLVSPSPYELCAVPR

Cytochrome P450 1A2 = biological target: T6, Cytochrome P450 1A2 (Homo sapiens, UniProt P05177);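 further: PubChem cytochrome P450 panel assay, CYP1A2 panel member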
T6 sequence (P05177 whole entry): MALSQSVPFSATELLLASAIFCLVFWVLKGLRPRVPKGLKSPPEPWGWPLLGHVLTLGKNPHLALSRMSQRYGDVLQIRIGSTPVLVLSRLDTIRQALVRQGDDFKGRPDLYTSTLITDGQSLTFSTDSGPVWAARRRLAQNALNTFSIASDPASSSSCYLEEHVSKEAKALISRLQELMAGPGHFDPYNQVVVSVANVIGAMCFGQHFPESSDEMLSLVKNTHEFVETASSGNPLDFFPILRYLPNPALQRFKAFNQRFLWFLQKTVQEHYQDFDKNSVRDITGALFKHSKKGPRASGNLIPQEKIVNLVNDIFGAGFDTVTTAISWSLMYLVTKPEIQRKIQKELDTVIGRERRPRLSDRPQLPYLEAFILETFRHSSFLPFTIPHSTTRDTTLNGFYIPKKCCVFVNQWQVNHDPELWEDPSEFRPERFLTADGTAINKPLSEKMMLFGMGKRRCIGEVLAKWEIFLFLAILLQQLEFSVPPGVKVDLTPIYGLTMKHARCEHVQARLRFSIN

Sequence of Glyceraldehyde-3-phosphate dehydrogenase (P04406 whole entry): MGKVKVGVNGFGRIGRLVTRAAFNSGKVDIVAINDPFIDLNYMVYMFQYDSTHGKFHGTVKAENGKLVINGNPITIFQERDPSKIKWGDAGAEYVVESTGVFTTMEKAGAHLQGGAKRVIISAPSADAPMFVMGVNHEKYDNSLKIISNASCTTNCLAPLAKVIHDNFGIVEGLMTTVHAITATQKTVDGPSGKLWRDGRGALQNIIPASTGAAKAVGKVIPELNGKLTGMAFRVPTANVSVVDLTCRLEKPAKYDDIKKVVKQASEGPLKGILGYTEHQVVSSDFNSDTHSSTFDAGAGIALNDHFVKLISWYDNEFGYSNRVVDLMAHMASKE
Sequence of Heat shock cognate 71 kDa protein (P11142 whole entry): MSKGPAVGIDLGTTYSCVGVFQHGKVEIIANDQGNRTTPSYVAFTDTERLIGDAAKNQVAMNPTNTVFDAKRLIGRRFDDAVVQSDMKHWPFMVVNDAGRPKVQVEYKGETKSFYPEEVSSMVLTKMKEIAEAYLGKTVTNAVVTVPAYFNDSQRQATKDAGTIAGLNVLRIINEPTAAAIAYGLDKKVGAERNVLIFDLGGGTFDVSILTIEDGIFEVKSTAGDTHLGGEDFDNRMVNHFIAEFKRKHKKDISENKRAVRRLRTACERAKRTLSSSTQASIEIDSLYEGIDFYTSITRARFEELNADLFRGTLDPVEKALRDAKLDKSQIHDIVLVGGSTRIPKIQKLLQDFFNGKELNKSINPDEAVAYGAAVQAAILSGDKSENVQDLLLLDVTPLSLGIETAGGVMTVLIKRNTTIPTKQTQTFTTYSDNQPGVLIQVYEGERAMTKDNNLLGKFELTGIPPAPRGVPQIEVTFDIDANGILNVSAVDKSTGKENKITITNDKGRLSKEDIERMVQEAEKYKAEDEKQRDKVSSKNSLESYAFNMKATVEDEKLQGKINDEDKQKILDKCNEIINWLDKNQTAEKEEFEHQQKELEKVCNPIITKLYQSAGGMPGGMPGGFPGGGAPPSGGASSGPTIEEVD

## COc1ccc(NC(=O)C(=O)O)cc1
[1]
  IC50: > 100 µM (not active)
[2]
  IC50: > 100 µM (not active)
[3]
  IC50: > 100 µM (not active)

## COc1cnc(-c2ccccn2)nc1Oc1cccc(C(F)(F)F)c1
[4]
  IC50: 7.79 µM (active)
[5]
  IC50: > 67 µM (not active)

## Cc1cc2c(C(C)C)c(O)c(O)c(C=O)c2c(O)c1-c1c(C)cc2c(C(C)C)c(O)c(O)c(C=O)c2c1O
[6]
  IC50: 5.39 µM (active)
[7]
  IC50: 1.36 µM (active)
[8]
  IC50: 15.5 µM (not active)

## CCOc1cccc(-c2nnc3n2N=C(c2cc(OC)ccc2OC)CS3)c1
[9]
  IC50: > 80 µM (inactive)
[10]
  EC50: > 12 µM (not active)
[11]
  EC50: 13.1 µM (active)
[12]
  EC50: 9.53 µM (active)
cells
  EC50: > 12 µM (not active)
[13]
  EC50: < 0.1 µM (active)
[14]
  EC50: 10.5 µM (active)

## O=C(O)c1ccc(N/N=C/c2c[nH]c3ccccc23)cc1
[15]
  IC50: 0.794 µM (active)
[16]
  AC50: > 52 µM (inactive)
[17]
  AC50: 2.15 µM (active)
[18]
  IC50: 0.985 µM (active)
[19]
  IC50: > 39.8 µM (not active)
Caspase-3
  IC50: 0.906 µM (active)
[20]
  IC50: 0.869 µM (active)
[21]
  AC50: 2.25 µM (active)
[22]
  IC50: 47.7 µM (active)

## CCOC(=O)C1=C(C)NC(C)=C(C(=O)OC)[C@H]1c1cccc([N+](=O)[O-])c1 [(R)-NITRENDIPINE]
Cytochrome P450 2D6
  AC50: 10 µM (inconclusive)
Cytochrome P450 1A2
  AC50: 31.6 µM (inconclusive)
